Assay results: patent publication US20140051679A1, “KINASE INHIBITORS AND METHOD OF TREATING CANCER WITH SAME” (UNIVERISTY HEALTH NETWORKS, priority 2011, published 2014)

How the values were obtained:
[1] = tested on: PA-1 ovarian cancer cells; experiment: Cell growth inhibition, Sulforhodamine B assay, PA-1; format: cell-based; details: 120 h, 5 days culture, SRB assay, read-out: Cell Line GI50 Range PA-1
HT29 colon cancer cells = experiment: Cell growth inhibition, Sulforhodamine B assay, HT29; format: cell-based; details: Homo sapiens, HT-29, 120 h, 5 days culture, SRB assay, read-out: Cell Line GI50 Range HT29
human PLK4 = molecular target: T1, human PLK4 (Homo sapiens, UniProt O00444); experiment: PLK4 inhibition assay (indirect ELISA); format: biochemical; details: GST-PLK4 4 nM, 15 μM ATP; read-out: IC50 Ranges PLK4
T1 construct: amino terminal GST fusion of residues 1-391 of human PLK4; made in house; host or cells: E. coli
T1 sequence (O00444 1-391): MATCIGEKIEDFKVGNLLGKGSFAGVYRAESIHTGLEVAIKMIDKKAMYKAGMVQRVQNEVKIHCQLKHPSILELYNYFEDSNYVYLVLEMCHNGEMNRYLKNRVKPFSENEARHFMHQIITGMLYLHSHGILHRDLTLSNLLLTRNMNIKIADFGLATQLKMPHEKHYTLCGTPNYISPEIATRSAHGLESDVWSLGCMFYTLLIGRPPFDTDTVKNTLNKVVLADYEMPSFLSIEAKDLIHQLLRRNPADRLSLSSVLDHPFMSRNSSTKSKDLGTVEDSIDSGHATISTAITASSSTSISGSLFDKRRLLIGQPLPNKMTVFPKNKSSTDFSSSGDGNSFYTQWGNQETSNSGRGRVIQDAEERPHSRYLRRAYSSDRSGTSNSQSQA
In short: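 Dephosphorylated GST-tagged human PLK4 (residues 1-391, E. coli), 4 nM, preincubated 15 min with compound, then reacted 30 min with 15 μM ATP on MBP-coated plates (50 mM HEPES pH 7.5, 10 mM MgCl2, 0.01% Brij 35). Phospho-MBP detected by antibody ELISA at 450 nm. Tested at 10 μM or 10-point titrations; IC50 from 4-parameter logistic fit.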

human TTK = molecular target: T2, human TTK (Homo sapiens, UniProt P33981); experiment: TTK inhibition assay (indirect ELISA); format: biochemical; details: GST-TTK 0.68 nM, 16 μM ATP; read-out: IC50 Ranges TTK
T2 construct: amino terminal GST fusion of full length human TTK; purchased Invitrogen
T2 sequence (P33981 1-857): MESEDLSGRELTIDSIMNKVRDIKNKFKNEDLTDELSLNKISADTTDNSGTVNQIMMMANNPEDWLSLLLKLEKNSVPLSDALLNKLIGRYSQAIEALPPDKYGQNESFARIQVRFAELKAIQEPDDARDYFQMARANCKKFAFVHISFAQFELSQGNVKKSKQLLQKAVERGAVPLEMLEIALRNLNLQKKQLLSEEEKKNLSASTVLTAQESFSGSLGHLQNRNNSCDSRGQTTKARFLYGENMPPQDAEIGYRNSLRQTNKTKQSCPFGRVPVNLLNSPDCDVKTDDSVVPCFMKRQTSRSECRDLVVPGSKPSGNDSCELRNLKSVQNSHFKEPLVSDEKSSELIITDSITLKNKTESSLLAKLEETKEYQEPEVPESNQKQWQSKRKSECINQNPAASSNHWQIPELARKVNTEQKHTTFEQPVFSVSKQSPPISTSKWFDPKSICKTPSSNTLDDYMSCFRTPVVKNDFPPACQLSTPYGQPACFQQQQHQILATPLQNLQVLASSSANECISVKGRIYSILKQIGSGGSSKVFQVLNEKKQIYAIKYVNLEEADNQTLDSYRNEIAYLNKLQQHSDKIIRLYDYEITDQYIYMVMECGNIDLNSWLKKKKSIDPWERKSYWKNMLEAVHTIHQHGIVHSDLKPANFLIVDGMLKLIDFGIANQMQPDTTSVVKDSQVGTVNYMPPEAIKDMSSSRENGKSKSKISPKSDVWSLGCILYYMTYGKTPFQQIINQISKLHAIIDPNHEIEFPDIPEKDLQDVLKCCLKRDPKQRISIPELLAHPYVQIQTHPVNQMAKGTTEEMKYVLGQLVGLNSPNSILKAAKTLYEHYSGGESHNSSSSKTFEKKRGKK

[2] = tested on: MDA-MB-231 breast cancer cells; experiment: Cell growth inhibition, Sulforhodamine B assay, MDA-MB-231; format: cell-based; details: Homo sapiens, 120 h, 5 days culture, SRB assay, read-out: Cell Line GI50 Range MDA-MB-231
[3] = tested on: OVCAR-3 ovarian cancer cells; experiment: Cell growth inhibition, Sulforhodamine B assay, OVCAR-3; format: cell-based; details: Homo sapiens, 120 h, 5 days culture, SRB assay, read-out: Cell Line GI50 Range OVCAR-3
[4] = tested on: MDA-MB-468 breast cancer cells; experiment: Cell growth inhibition, Sulforhodamine B assay, MDA-MB-468; format: cell-based; details: Homo sapiens, 120 h, 5 days culture, SRB assay, read-out: Cell Line GI50 Range MDA-MB-468
Aurora B = molecular target: T3, Aurora B (Homo sapiens, UniProt Q96GD4); experiment: Aurora B inhibition assay (Z-Lyte); format: biochemical; details: 28 nM Aurora B, 128 μM ATP; read-out: IC50 Ranges Aurora B
T3 construct: purchased Invitrogen PV3970
T3 sequence (Q96GD4 whole entry): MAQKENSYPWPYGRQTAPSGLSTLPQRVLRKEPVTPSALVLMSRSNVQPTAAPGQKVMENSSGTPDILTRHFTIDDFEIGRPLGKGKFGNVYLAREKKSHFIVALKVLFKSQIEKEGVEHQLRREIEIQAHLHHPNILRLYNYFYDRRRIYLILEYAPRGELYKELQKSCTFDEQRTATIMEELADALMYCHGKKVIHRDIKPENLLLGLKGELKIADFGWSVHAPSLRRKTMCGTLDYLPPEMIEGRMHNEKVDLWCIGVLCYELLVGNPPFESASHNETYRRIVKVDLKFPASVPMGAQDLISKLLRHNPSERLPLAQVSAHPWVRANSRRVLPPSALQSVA
Method: Aurora B inhibition was determined using the Z-Lyte assay kit from Invitrogen. The assay was performed using the recommended manufacturer's instructions with 128 μM ATP and 28 nM Aurora B (Invitrogen cat #PV3970). The % inhibition values were determined according to the manufacturer's directions and IC50 values were obtained using a non-linear 4 point logistic curve fit (XLfit4, IDBS)

[5] = tested on: HCT116 colon cancer cells; experiment: Cell growth inhibition, Sulforhodamine B assay, HCT116; format: cell-based; details: Homo sapiens, HCT-116, 120 h, 5 days culture, SRB assay, read-out: Cell Line GI50 Range HCT116
[6] = tested on: Ovarian TICs, 2393A ovarian; experiment: Ovarian tumor-initiating cell growth inhibition (Alamar Blue); format: cell-based; details: 144 h, 6 days, read-out: GI50 range 2393A ovarian
[7] = tested on: Colon tumor initiating cells (TICs), 12 colon; experiment: Colon tumor-initiating cell growth inhibition (Alamar Blue); format: cell-based; details: 216 h, 9 days, read-out: GI50 range 12 colon

SMILES | GI50 [1] | GI50 (HT29 colon cancer cells) | IC50 (human PLK4) | IC50 (human TTK) | GI50 [2] | GI50 [3] | GI50 [4] | IC50 (Aurora B) | GI50 [5] | GI50 [6] | GI50 [7]
Cc1ccccc1C(NC(=O)c1ccc2[nH]nc(-c3ccc(OC4CCN(C)CC4)cc3)c2c1)C1CC1 (stereo not shown) [Example A132, N-(cyclopropyl(o-tolyl)methyl)-3-(4-((1-methylpiperidin-4-yl)oxy)phenyl)-1H-indazole-5-carboxamide] | ≤ 5 µM | ≤ 5 µM | ≤ 5 µM | ≤ 5 µM | ≤ 5 µM | ≤ 5 µM | ≤ 5 µM | ≤ 5 µM | ≤ 5 µM | ≤ 5 µM | ≤ 5 µM
CN1CCC(Oc2ccc(-c3n[nH]c4ccc(C(=O)NC(c5cccs5)C5CC5)cc34)cc2)CC1 (stereo not shown) [Example A147] | ≤ 5 µM | ≤ 5 µM | ≤ 5 µM | ≤ 5 µM | ≤ 5 µM | ≤ 5 µM | ≤ 5 µM | ≤ 5 µM | ≤ 5 µM | ≤ 5 µM | ≤ 5 µM
CN1CCC(Oc2ccc(-c3n[nH]c4ccc(NC(=O)C(OC5CCCC5)c5ccccc5)cc34)cc2)CC1 (stereo not shown) [Example A183, 2-(cyclopentyloxy)-N-(3-(4-((1-methylpiperidin-4-yl)oxy)phenyl)-1H-indazol-5-yl)-2-phenylacetamide] | ≤ 5 µM |  | ≤ 5 µM | ≤ 5 µM | ≤ 5 µM | ≤ 5 µM | ≤ 5 µM | ≤ 5 µM | ≤ 5 µM | ≤ 5 µM | ≤ 5 µM
CN1CCC(Oc2ccc(-c3n[nH]c4ccc(C(=O)NC(c5ccccc5)C5CCCCC5)cc34)cc2)CC1 (stereo not shown) [Example A170, N-(cyclohexyl(phenyl)methyl)-3-(4-((1-methylpiperidin-4-yl)oxy)phenyl)-1H-indazole-5-carboxamide] | ≤ 5 µM | ≤ 5 µM | ≤ 5 µM | ≤ 5 µM | ≤ 5 µM | ≤ 5 µM | ≤ 5 µM |  | ≤ 5 µM | ≤ 5 µM | ≤ 5 µM

Results, then the compound that gave them:

GI50 [1] | GI50 (HT29 colon cancer cells) | IC50 (human PLK4) | IC50 (human TTK) | GI50 [2] | GI50 [3] | GI50 [4] | IC50 (Aurora B) | GI50 [5] | GI50 [6] | GI50 [7] | SMILES
≤ 5 µM | ≤ 5 µM | ≤ 5 µM | ≤ 5 µM | ≤ 5 µM | 5 to 20 µM | ≤ 5 µM |  | ≤ 5 µM | ≤ 5 µM | ≤ 5 µM | COC[C@@H](NC(=O)c1ccc2[nH]nc(-c3ccc(OC4CCN(C)CC4)cc3)c2c1)c1ccccc1 [Example A173, (S)—N-(2-methoxy-1-phenylethyl)-3-(4-((1-methylpiperidin-4-yl)oxy)phenyl)-1H-indazole-5-carboxamide]
≤ 5 µM | ≤ 5 µM | ≤ 5 µM | ≤ 5 µM | ≤ 5 µM | ≤ 5 µM | ≤ 5 µM | ≤ 5 µM | ≤ 5 µM | ≤ 5 µM | ≤ 5 µM | COCCN1CCC(Oc2ccc(-c3n[nH]c4ccc(C(=O)NC(c5ccccc5)C5CC5)cc34)cc2)CC1 (stereo not shown) [Example A98, N-(cyclopropyl(phenyl)methyl)-3-(4-((1-(2-methoxyethyl)piperidin-4-yl)oxy)phenyl)-1H-indazole-5-carboxamide]
≤ 5 µM | ≤ 5 µM | ≤ 5 µM | ≤ 5 µM | ≤ 5 µM | ≤ 5 µM | ≤ 5 µM | ≤ 5 µM | ≤ 5 µM | ≤ 5 µM | ≤ 5 µM | CC[C@@H](NC(=O)c1ccc2[nH]nc(-c3ccc(OC4CCN(C)CC4)cc3)c2c1)c1cccc(OC)c1 [Example A174, (R)—N-(1-(3-methoxyphenyl)propyl)-3-(4-((1-methylpiperidin-4-yl)oxy)phenyl)-1H-indazole-5-carboxamide]
≤ 5 µM | ≤ 5 µM | ≤ 5 µM | ≤ 5 µM | ≤ 5 µM | ≤ 5 µM | ≤ 5 µM | ≤ 5 µM | ≤ 5 µM | ≤ 5 µM | ≤ 5 µM | CN1CCC(Oc2ccc(-c3n[nH]c4ccc(C(=O)NC(c5ccsc5)C5CCCC5)cc34)cc2)CC1 (stereo not shown) [Example A110, N-(cyclopentyl(thiophen-3-yl)methyl)-3-(4-((1-methylpiperidin-4-yl)oxy)phenyl)-1H-indazol-5-carboxamide]
≤ 5 µM |  | ≤ 5 µM | ≤ 5 µM | 5 to 20 µM | 20 to 50 µM | ≤ 5 µM | ≤ 5 µM | ≤ 5 µM | ≤ 5 µM | ≤ 5 µM | O=C(Nc1ccc2[nH]nc(-c3ccc(OC4CN(C5COC5)C4)cc3)c2c1)C(c1ccsc1)N1CCCC1 (stereo not shown) [Example A189, N-(3-(4-((1-(oxetan-3-yl)azetidin-3-yl)oxy)phenyl)-1H-indazol-5-yl)-2-(pyrrolidin-1-yl)-2-(thiophen-3-yl)acetamide]
≤ 5 µM |  | ≤ 5 µM | ≤ 5 µM | ≤ 5 µM | ≤ 5 µM | ≤ 5 µM | ≤ 5 µM | ≤ 5 µM | ≤ 5 µM | ≤ 5 µM | CC(C)OC(C(=O)Nc1ccc2[nH]nc(-c3ccc(OC4CCN(C)CC4)cc3)c2c1)c1ccccc1 (stereo not shown) [Example A187, 2-isopropoxy-N-(3-(4-((1-methylpiperidin-4-yl)oxy)phenyl)-1H-indazol-5-yl)-2-phenylacetamide]
≤ 5 µM |  | ≤ 5 µM | ≤ 5 µM | ≤ 5 µM | ≤ 5 µM | ≤ 5 µM | ≤ 5 µM | ≤ 5 µM | ≤ 5 µM | ≤ 5 µM | CN1CCC(Oc2ccc(-c3n[nH]c4ccc(NC(=O)C(c5ccsc5)N5CCC5)cc34)cc2)CC1 (stereo not shown) [Example A191, 2-(azetidin-1-yl)-N-(3-(4-((1-methylpiperidin-4-yl)oxy)phenyl)-1H-indazol-5-yl)-2-(thiophen-3-yl)acetamide]
